In patent publication US7186862B2, “Microbicidal agents on the basis of biphenylbenzamide derivatives” (Bayer CropScience AG, priority 2002, dated 2007):

tested on: not listed separately; experiment: logP determination by HPLC on reversed-phase column (EEC Directive 79/831); format: physicochemical; details: reversed-phase C18, 43° C., 0.1% aqueous phosphoric acid/acetonitrile gradient
Description: The logP values given in the tables and preparation examples above are determined in accordance with EEC Directive 79/831 Annex V.48 by HPLC (High Performance Liquid Chromatography) on a reversed-phase column (C18). Temperature: 43° C. The determination is carried out in the acidic range at pH 2.3 using the mobile phases 0.1% aqueous phosphoric acid and acetonitrile; linear gradient from 10% acetonitrile to 90% acetonitrile. Calibration is carried out using unbranched […] (of 3 to 16 carbon atoms) with known logP values (determination of the logP values by the retention time using linear interpolation between two successive alkanones).

Compound	logP (pH 2.3)
Cc1ccccc1C(=O)Nc1ccccc1-c1ccc(Br)cc1 [Compound 22]	3.86
O=C(Nc1ccccc1-c1ccc(OC(F)(F)F)c(C(F)(F)F)c1)c1ccccc1C(F)(F)F [Compound 40]	4.41
O=C(Nc1ccccc1-c1ccc(OC(F)(F)F)c(F)c1)c1ccccc1C(F)(F)F [Compound 37]	4.08
O=C(Nc1ccccc1-c1ccc(F)cc1)c1ccccc1Br [Compound 21]	3.42
O=C(Nc1ccccc1-c1ccc(Cl)c(Cl)c1)c1ccccc1I [Compound 44]	4.06
O=C(Nc1ccccc1-c1ccc(F)cc1F)c1ccccc1C(F)(F)F [Compound 36]	3.41
Cc1ccccc1C(=O)Nc1ccccc1-c1cccc(Cl)c1 [Compound 24]	3.72
O=C(Nc1ccccc1-c1ccc(C(F)(F)F)cc1)c1ccccc1I [Compound 28]	4.03
O=C(Nc1ccc(F)cc1-c1ccc(Cl)c(Cl)c1)c1ccccc1C(F)(F)F [Compound 47]	4.11
CSc1ccc(-c2ccccc2NC(=O)c2ccccc2Br)cc1 [Compound 20]	3.78
O=C(Nc1ccccc1-c1ccc(Cl)cc1)c1ccccc1I [Compound 46]	3.74
Cc1ccccc1C(=O)Nc1ccccc1-c1ccc(OC(F)(F)F)cc1 [Compound 25]	4.03
O=C(Nc1ccccc1-c1cc(Cl)cc(Cl)c1)c1ccccc1C(F)(F)F [Compound 43]	4.16
CSc1ccc(-c2ccccc2NC(=O)c2ccccc2Cl)cc1 [Compound 14]	3.75
O=C(Nc1ccccc1-c1ccc(OC(F)(F)F)cc1)c1ccccc1C(F)(F)F [Compound 8]	4.20
CSc1ccc(-c2ccccc2NC(=O)c2ccccc2I)cc1 [Compound 31]	3.86
O=C(Nc1ccccc1-c1ccc(OC(F)(F)F)cc1)c1ccccc1Br [Compound 19]	4.08
O=C(Nc1ccccc1-c1ccc(Cl)cc1)c1ccccc1Br [Compound 50]	3.66

Compound	logP (pH 2.3)
CSc1ccc(-c2ccccc2NC(=O)c2ccccc2C(F)(F)F)cc1 [Compound 9]	3.89
O=C(Nc1ccccc1-c1ccc(Cl)cc1F)c1ccccc1C(F)(F)F [Compound 45]	3.68
O=C(Nc1ccccc1-c1cccc(Cl)c1)c1ccccc1I [Compound 29]	3.86
CSc1ccc(-c2ccccc2NC(=O)c2ccccc2C)cc1 [Compound 26]	3.72
O=C(Nc1ccccc1-c1ccc(C(F)(F)F)cc1)c1ccccc1Br [Compound 17]	3.94
O=C(Nc1ccccc1-c1ccc(Br)cc1)c1ccccc1Br [Compound 16]	3.91
O=C(Nc1ccccc1-c1ccc(C(F)(F)F)cc1)c1ccccc1Cl [Compound 11]	3.89
Cc1ccc(-c2ccccc2NC(=O)c2ccccc2C(F)(F)F)cc1C(F)(F)F [Compound 39]	4.18
O=C(Nc1ccccc1-c1ccc(C(F)(F)F)cc1)c1ccccc1C(F)(F)F [Compound 6]	4.05
O=C(Nc1ccccc1-c1ccc(Cl)c(C(F)(F)F)c1)c1ccccc1C(F)(F)F [Compound 38]	4.18
O=C(Nc1ccccc1-c1ccc(F)cc1)c1ccccc1I [Compound 32]	3.55
O=C(Nc1ccccc1-c1ccc(Br)cc1)c1ccccc1I [Compound 27]	4.00
Cc1ccccc1C(=O)Nc1ccccc1-c1ccc(C(F)(F)F)cc1 [Compound 23]	3.86
O=C(Nc1c(F)cccc1-c1ccc(Cl)c(Cl)c1)c1ccccc1C(F)(F)F [Compound 48]	3.81
O=C(Nc1ccccc1-c1ccc(Cl)cc1)c1ccccc1Cl [Compound 49]	3.64
O=C(Nc1ccccc1-c1ccc(F)cc1)c1ccccc1Cl [Compound 15]	3.40
O=C(Nc1ccccc1-c1ccc(OC(F)(F)F)cc1)c1ccccc1I [Compound 30]	4.21
O=C(Nc1ccccc1-c1ccc(OC(F)(F)F)cc1)c1ccccc1Cl [Compound 13]	4.08

same assay, conditions: reversed-phase HPLC column (C18), pH 2.3, reversed-phase C18, 43° C., 0.1% aqueous phosphoric acid/acetonitrile gradient

Compound	chromatographic logP
Cc1cc(-c2ccccc2NC(=O)c2ccccc2C(F)(F)F)ccc1Cl [Compound 42, N-(4′-chloro-3′-methyl-1,1′-biphenyl-2-yl)-2-(trifluoromethyl)benzamide]	4.18
O=C(Nc1ccccc1-c1ccc(Cl)cc1)c1ccccc1C(F)(F)F [Compound 1]	3.73
O=C(Nc1ccccc1-c1ccc(Br)cc1)c1ccccc1Cl [Compound 10]	3.89
O=C(Nc1ccccc1-c1cccc(Cl)c1)c1ccccc1Cl [Compound 12]	3.75
O=C(Nc1ccccc1-c1ccc(F)c(Cl)c1)c1ccccc1C(F)(F)F [Compound 35, N-(3′-chloro-4′-fluoro-1,1′-biphenyl-2-yl)-2-(trifluoromethyl)benzamide]	3.81
O=C(Nc1ccccc1Br)c1ccccc1C(F)(F)F [IV-1, N-(2-bromophenyl)-2-(trifluoro-methyl)benzamide]	2.99
Cc1cc(Cl)ccc1-c1ccccc1NC(=O)c1ccccc1C(F)(F)F [Compound 3]	4.14
O=C(Nc1ccccc1-c1ccc(Cl)cc1Cl)c1ccccc1C(F)(F)F [Compound 2]	4
O=C(Nc1ccccc1-c1ccc(Br)cc1)c1ccccc1C(F)(F)F [Compound 5]	4.03
O=C(Nc1ccccc1-c1cccc(Cl)c1)c1ccccc1Br [Compound 18]	3.78
O=C(Nc1ccccc1-c1ccc(F)c(C(F)(F)F)c1)c1ccccc1C(F)(F)F [Compound 41]	3.9
O=C(Nc1ccccc1-c1ccc(Cl)c(F)c1)c1ccccc1C(F)(F)F [Compound 34]	3.76
O=C(Nc1ccccc1-c1ccc(F)c(F)c1)c1ccccc1C(F)(F)F [Compound 33]	3.55

tested on: Podosphaera leucotricha; experiment: Podosphaera test (apple)/protective; format: in vivo; details: 240 h, application rate 100 g/ha, apple plants, protective spray, evaluation 10 days after inoculation, 100% = no infection, read-out: Efficacy in %
Description: (§1) [table] To produce a suitable preparation of active compound, 1 part by weight of active compound is mixed with the stated amounts of solvent and emulsifier, and the concentrate is diluted with water to the desired concentration. To test for protective activity, young plants are sprayed with the preparation of active compound at the stated application rate. After the spray coating has dried on, the plants are inoculated with an aqueous spore suspension of the apple mildew pathogen Podosphaera leucotricha. The plants are then placed in a greenhouse at about 23° C. and a relative atmospheric humidity of about 70%. Evaluation is carried out 10 days after the inoculation. 0% means an efficacy which corresponds to that of the control, whereas an efficacy of 100% means that no infection is observed.

Compound	pest or weed control at 100 g/ha [%]
Cc1cc(-c2ccccc2NC(=O)c2ccccc2C(F)(F)F)ccc1Cl [Compound 42, N-(4′-chloro-3′-methyl-1,1′-biphenyl-2-yl)-2-(trifluoromethyl)benzamide]	100
O=C(Nc1ccccc1-c1ccc(Cl)cc1)c1ccccc1C(F)(F)F [Compound 1]	100
O=C(Nc1ccccc1-c1cccc(Cl)c1)c1ccccc1Cl [Compound 12]	100
O=C(Nc1ccccc1-c1ccc(F)c(Cl)c1)c1ccccc1C(F)(F)F [Compound 35, N-(3′-chloro-4′-fluoro-1,1′-biphenyl-2-yl)-2-(trifluoromethyl)benzamide]	100
Cc1cc(Cl)ccc1-c1ccccc1NC(=O)c1ccccc1C(F)(F)F [Compound 3]	99
O=C(Nc1ccccc1-c1ccc(Cl)cc1Cl)c1ccccc1C(F)(F)F [Compound 2]	100
O=C(Nc1ccccc1-c1ccc(F)c(C(F)(F)F)c1)c1ccccc1C(F)(F)F [Compound 41]	94
O=C(Nc1ccccc1-c1ccc(Cl)c(F)c1)c1ccccc1C(F)(F)F [Compound 34]	100
O=C(Nc1ccccc1-c1ccc(F)c(F)c1)c1ccccc1C(F)(F)F [Compound 33]	100

tested on: Sphaerotheca fuliginea; experiment: Sphaerotheca test (cucumber)/protective; format: in vivo; details: Podosphaera fuliginea, 168 h; application rate 100 g/ha; cucumber plants, protective spray; evaluation 7 days after inoculation; 100% = no infection; read-out: Efficacy in %
Description: as §1, with “of Sphaerotheca fuliginea.” for “of the apple mildew pathogen Podosphaera leucotricha.”, “out 7” for “out 10”

Compound	pest or weed control at 100 g/ha [%]
Cc1cc(-c2ccccc2NC(=O)c2ccccc2C(F)(F)F)ccc1Cl [Compound 42, N-(4′-chloro-3′-methyl-1,1′-biphenyl-2-yl)-2-(trifluoromethyl)benzamide]	100
O=C(Nc1ccccc1-c1ccc(Cl)cc1)c1ccccc1C(F)(F)F [Compound 1]	94
O=C(Nc1ccccc1-c1ccc(F)c(Cl)c1)c1ccccc1C(F)(F)F [Compound 35, N-(3′-chloro-4′-fluoro-1,1′-biphenyl-2-yl)-2-(trifluoromethyl)benzamide]	93
Cc1cc(Cl)ccc1-c1ccccc1NC(=O)c1ccccc1C(F)(F)F [Compound 3]	100
O=C(Nc1ccccc1-c1ccc(Cl)cc1Cl)c1ccccc1C(F)(F)F [Compound 2]	94
O=C(Nc1ccccc1-c1ccc(F)c(C(F)(F)F)c1)c1ccccc1C(F)(F)F [Compound 41]	100
O=C(Nc1ccccc1-c1ccc(Cl)c(F)c1)c1ccccc1C(F)(F)F [Compound 34]	95
O=C(Nc1ccccc1-c1ccc(F)c(F)c1)c1ccccc1C(F)(F)F [Compound 33]	82

tested on: Venturia inaequalis; experiment: Venturia test (apple)/protective; format: in vivo; details: 240 h, application rate 100 g/ha, apple plants, protective spray, evaluation 10 days after inoculation, 100% = no infection, read-out: Efficacy in %
Description: as §1, with “conidia” for “spore”, “scab” for “mildew”, “Venturia inaequalis and then remain in an incubation cabin at about 20° C. and 100% relative atmospheric humidity for 1 day.” for “Podosphaera leucotricha.”, “21°” for “23°”, “90%.” for “70%.”

Compound	pest or weed control at 100 g/ha [%]
Cc1cc(-c2ccccc2NC(=O)c2ccccc2C(F)(F)F)ccc1Cl [Compound 42, N-(4′-chloro-3′-methyl-1,1′-biphenyl-2-yl)-2-(trifluoromethyl)benzamide]	100
O=C(Nc1ccccc1-c1ccc(Cl)cc1)c1ccccc1C(F)(F)F [Compound 1]	97
O=C(Nc1ccccc1-c1cccc(Cl)c1)c1ccccc1Cl [Compound 12]	100
O=C(Nc1ccccc1-c1ccc(F)c(Cl)c1)c1ccccc1C(F)(F)F [Compound 35, N-(3′-chloro-4′-fluoro-1,1′-biphenyl-2-yl)-2-(trifluoromethyl)benzamide]	100
Cc1cc(Cl)ccc1-c1ccccc1NC(=O)c1ccccc1C(F)(F)F [Compound 3]	100
O=C(Nc1ccccc1-c1ccc(Cl)c(F)c1)c1ccccc1C(F)(F)F [Compound 34]	100
O=C(Nc1ccccc1-c1ccc(F)c(F)c1)c1ccccc1C(F)(F)F [Compound 33]	100

tested on: Alternaria solani; experiment: Alternaria test (tomato)/protective; format: in vivo; details: application rate 750 g/ha; tomato plants, protective spray, inoculation 1 day after treatment; evaluation 7 days after inoculation; 100% = no infection
Description: [table] To produce a suitable p reparation of active compound, 1 part by weight of active compound is mixed with the stated amounts of solvent and emulsifier, and the concentrate is diluted with water to the desired concentration. To test for protective activity, young tomato plants are sprayed with the preparation of active compound at the stated application rate. 1 day after the treatment, the plants are inoculated with a spore suspension of Alternaria solani and are then kept at 100% relative atmospheric humidity and 20° C. for 24 h. The plants are then kept at 96% relative atmospheric humidity and a temperature of 20° C. Evaluation is carried out 7 days after the inoculation. 0% means an efficacy which corresponds to that of the control, whereas an efficacy of 100% means that no infection is observed.

Compound	Efficacy in % [%]
O=C(Nc1ccccc1-c1ccc(Br)cc1)c1ccccc1Cl [Compound 10]	92
O=C(Nc1ccccc1-c1ccc(Br)cc1)c1ccccc1C(F)(F)F [Compound 5]	94
O=C(Nc1ccccc1-c1cccc(Cl)c1)c1ccccc1Br [Compound 18]	100
O=C(Nc1ccccc1-c1ccc(F)c(F)c1)c1ccccc1C(F)(F)F [Compound 33]	94
